The values that follow come from EP0696280B1, “SUBSTITUTED PYRROLIDIN-3-YL-ALKYL-PIPERIDINES USEFUL AS TACHYKININ ANTAGONISTS” (MERRELL PHARMACEUTICALS INC., priority 1993, dated 1994).

For experiment [1], the target named is T1, NK-3 receptor (Cavia porcellus, UniProt P30098).
T1 construct: freshly collected guinea pig cerebral cortex; from tissue; host or cells: guinea pig cerebral cortex membranes
T1 sequence (P30098 1-440): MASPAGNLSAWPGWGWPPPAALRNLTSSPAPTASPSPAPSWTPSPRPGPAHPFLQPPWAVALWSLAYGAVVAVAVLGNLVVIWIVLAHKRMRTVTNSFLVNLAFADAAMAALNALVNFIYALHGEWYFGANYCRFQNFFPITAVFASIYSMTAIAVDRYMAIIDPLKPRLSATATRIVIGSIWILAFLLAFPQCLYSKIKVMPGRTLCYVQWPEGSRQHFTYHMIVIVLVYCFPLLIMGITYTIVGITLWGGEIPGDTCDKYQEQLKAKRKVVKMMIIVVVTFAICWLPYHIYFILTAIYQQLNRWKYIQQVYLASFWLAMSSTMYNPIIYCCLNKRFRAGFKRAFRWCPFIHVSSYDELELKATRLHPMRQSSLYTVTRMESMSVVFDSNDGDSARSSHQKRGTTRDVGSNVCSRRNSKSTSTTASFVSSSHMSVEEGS
Nature of the experiment: Antagonism of iodinated tachykinin binding to NK-3 receptor (125I-Bolton Hunter labeled Lys-4 eledoisin, guinea pig cerebral cortex membranes). The procedure:
(§1) The NK1 receptor affinity of proposed tachykinin antagonists was devaluated in guinea pig lungs (Keystone Biologicals, Cleveland, OH), affinity for the NK2 receptor evaluated in HSKR-1 cells (which are mouse 3T3 fibroblasts expressing the human jejunal NK2 receptor) and NK-3 receptor affinity was evaluated in freshly collected guinea pig cerebral cortex. Tissues or cells were homogenized with a Polytron in 15 volumes of 50 mM Tris-HCl buffer (pH 7.4, 4°C) and centrifuged. The pellet was resuspended in Tris-HCl buffer and was centrifuged; the pellet was washed twice by resuspension. The final pellet was resuspended at a concentration of 40 mg/ml for tissues (guinea pig lung and cerebral cortex) and 20 mg/ml for cells in incubation buffer and remained at room temperature for at least 15 min prior to use. Receptor binding was initiated by addition of 250 µl membrane preparation in duplicate to 0.1 nM of the following radioligands: ^125I-Bolton Hunter Lys-3 labeled substance P; ^125iodohistidyl-1-neurokinin A; and ^125I-Bolton Hunter labeled Lys-4 eledoisin in a final volume of 500 µl of buffer containing 50 mM Tris-HCl (pH 7.4 at room temperature), 0.1% bovine serum albumin, 2 mM MnCl2, 40 µg/ml bacitracin, 4 µg/ml leupeptin and chymostatin, 1 µM thiorphan and various doses of the putative tachykinin antagonists. Incubations were performed at room temperature for 90 min (NK1 receptor assays) or 2 hr (NK2 and NK3 receptor assays); binding was terminated by addition of 50 mM Tris-HCl buffer (pH 7.4, 4°C) and filtration under vacuum through GF/B filters presoaked with 0.1% polyethyleneimine (NK1 receptor assays) or 0.5% bovine serum albumin (NK2 and NK3 receptor assays). Filter bound radioactivity was quantitated in a gamma counter. Nonspecific binding was defined as binding in the presence of 1 µM substance P, neurokinin A, or eledoisin. Specific binding was calculated by subtracting nonspecific binding from total binding. Competition of iodinated SP, NKA, or eledoisin binding by test compounds or standards was expressed as a percentage of this maximum competition. IC50 values (concentration required to inhibit 50% of receptor binding) were generated for each of the test compounds by nonlinear regression using an iterative curve fitting program (GraphPAD Inplot, San Diego, CA).

Experiment [2] concerns the target T2, human jejunal NK2 receptor (Homo sapiens, UniProt P21452).
T2 construct: expressed in transfected cells; host or cells: HSKR-1 cells (mouse 3T3 fibroblasts)
T2 sequence (P21452 1-398): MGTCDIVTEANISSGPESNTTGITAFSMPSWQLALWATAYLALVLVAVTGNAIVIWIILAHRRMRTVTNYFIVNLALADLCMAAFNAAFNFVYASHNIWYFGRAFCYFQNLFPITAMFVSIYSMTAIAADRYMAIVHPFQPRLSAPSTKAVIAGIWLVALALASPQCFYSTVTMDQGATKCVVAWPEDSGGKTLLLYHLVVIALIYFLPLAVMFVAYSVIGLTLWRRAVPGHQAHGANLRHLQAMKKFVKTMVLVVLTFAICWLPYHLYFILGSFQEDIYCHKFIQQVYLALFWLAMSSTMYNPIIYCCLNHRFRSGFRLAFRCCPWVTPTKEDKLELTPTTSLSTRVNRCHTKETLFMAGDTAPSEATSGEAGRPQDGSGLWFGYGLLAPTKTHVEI
The experiment can be described thus: Antagonism of iodinated tachykinin binding to NK2 receptor (125iodohistidyl-1-neurokinin A, HSKR-1 cell membranes). The note with it: HSKR-1 cells (mouse 3T3 fibroblasts expressing human jejunal NK2 receptor); mean of several experiments; read-out: NK-2 IC50. The procedure: as §1

For experiment [3], the target named is T3, NK1 receptor (Cavia porcellus, UniProt P30547).
T3 construct: Tissues or cells were homogenized with a Polytron in 15 volumes of 50 mM Tris-HCl buffer; tissue Keystone Biologicals, Cleveland, OH; host or cells: guinea pig lung membranes
The experiment can be described thus: Antagonism of iodinated tachykinin binding to NK1 receptor (125I-Bolton Hunter Lys-3 labeled substance P, guinea pig lung membranes). The procedure:
as §1

The subject of experiment [4] is capsaicin-induced respiratory effects. Nature of the experiment: Antagonism of capsaicin aerosol induced respiratory effects in conscious guinea pigs (whole body plethysmography). The class given is in vivo, guinea pig. The note with it: for DYSPNEA ONSET / MAXIMUM PRESSURE INCREASE (mmH2O) / SRE NUMBER*: mean and SEM; for SRE NUMBER*: number of coughs/gasps during 19 min exposure. The procedure:
In vivo experiments were performed using male Duncan Hartley guinea pigs (250-350g). Changes in conscious breathing patterns were monitored in four animals simultaneously using modified whole body plethysmography consisting of four small plexiglass boxes each connected to a reference box via Validyne DP 45-16 differential pressure transducers. The 4 boxes were equipped with an air supply line (also used for aerosol delivery) and an exhaust air line. Supply and exhaust lines were of the same length and narrow bore and arose from a common supply chamber and vented to a common exhaust chamber. This system was used to ensure that fluctuations in supply air and atmospheric pressure would remain in phase and be eliminated from the net signal by the differential pressure transducers. The analog pressure signals were digitalized via a Data Translation DT2821 A to D board. Data were collected at a rate of 100 samples/second/animal. Each cycle of pressure change was analyzed using the following parameters: rising and falling slope determined between minimum and maximum pressures, the ratio of rising over falling slope, and the magnitude of the change between initial trough pressure and peak cycle pressure. Using these values (and observing the animals) the pressure cycles were characterized into normal breaths, forced exhalations (apparent by abdominal heaving), significant respiratory events (SREs; usually coughs, less often sneezes or gasps which were characterized by transient, extremely large pressure increases which were distinguishable from noise) and movement/noise with a PCAT 286 running a System V UNIX operating system. Dyspnea was defined as a significant, sustained increase in plethysmograph pressure which was associated with an observable shift to labored breathing in the animal.
During the course of a typical experiment in which airway responsiveness to various bronchoconstricting agents was examined, aerosols were delivered for 19 min (0.33 ml/min) using a DeVilbiss Ultraneb 99 ultrasonic nebulizer and animals monitored during this time. Prior to nebulization, 1 min of resting breathing was collected to establish a baseline pressure. […] The vehicle for nebulization of all bronchoconstrictive agents was phosphate buffered saline (pH 7.4) which elicited no respiratory effects itself. Putative tachykinin antagonists were administered either (i.v.) 20 min prior to onset of aerosol exposure or orally 1 hour prior to onset (to guinea pigs after an overnight fast).
Capsaicin aerosol is known to promote release of the tachykinins SP and NKA from sensory nerves in the airways of guinea pigs which may then act upon NK1 and NK2 receptors, respectively to elicit respiratory effects. […]
Values are mean and SEM of data derived from number of animals indicated in parenthesis. Putative tachykinin antagonists were administered intravenously 20 min prior to initiation of capsaicin aerosol (0.001%). *SRE number indicates the number of coughs/gasps which occurred during the 19 min capsaicin exposure period.
Values are mean and SEM of data derived from number of animals indicated in parenthesis. Putative tachykinin antagonists were administered by oral gavage 1 hr prior to initiation of capsaicin aerosol (0.001%). *SRE number indicates the number of coughs/gasps which occurred during the 19 min capsaicin exposure period.

Setting [5] is: guinea pig lungs, mean of several experiments, read-out: NK-1 IC50.
The mark [6] stands for this setting: guinea pig cerebral cortex, mean of several experiments, read-out: NK-3 IC50.
Setting [7] is: 25 mg/kg by oral gavage 1 hr prior to capsaicin aerosol (0.001%).
The mark [8] stands for this setting: 50 mg/kg by oral gavage 1 hr prior to capsaicin aerosol (0.001%).

SMILES strings stand for the structures. Like-named read-outs stand apart in the source and are kept apart here.

T3 sequence (P30547 whole entry): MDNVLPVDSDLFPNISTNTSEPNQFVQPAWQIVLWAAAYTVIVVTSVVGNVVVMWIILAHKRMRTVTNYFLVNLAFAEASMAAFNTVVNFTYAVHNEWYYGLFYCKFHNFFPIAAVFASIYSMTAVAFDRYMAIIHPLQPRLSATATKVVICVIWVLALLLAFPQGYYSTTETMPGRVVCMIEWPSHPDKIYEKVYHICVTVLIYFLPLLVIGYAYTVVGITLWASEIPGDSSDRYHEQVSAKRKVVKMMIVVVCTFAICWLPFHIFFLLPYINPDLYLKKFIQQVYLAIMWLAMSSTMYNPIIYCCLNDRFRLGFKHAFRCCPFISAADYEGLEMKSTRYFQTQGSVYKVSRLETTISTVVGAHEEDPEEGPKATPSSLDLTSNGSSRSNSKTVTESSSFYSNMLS

On to `NC(=O)C1(c2ccccc2)CCN(CCC2(c3ccc(Cl)c(Cl)c3)CCN(C(=O)c3ccccc3)C2)CC1` (stereo not drawn) [Example 1, 1-[2-[3-(3,4-dichloro-phenyl)-1-benzoyl-pyrrolidin-3-yl]-ethyl]-4-phenyl-piperidine-4-carboxylic acid amide], for which the half-inhibitory concentration (IC50) in experiment [1] is 0.162 µM; in experiment [2], 0.007 µM.

As for `O=C(c1ccccc1)N1CCC(CCN2CCC3(CC2)C(=O)NCN3c2ccccc2)(c2ccc(Cl)c(Cl)c2)C1` (stereo not drawn) [Example 10, 8-[2-[3-(3,4-dichloro-phenyl)-1-benzoyl-pyrrolidin-3-yl]-ethyl]-1-phenyl-1,3,8-triaza-spiro[4.5]-decane-4-one], the IC50 came out at 0.255 µM in experiment [3] (setting [5]), 1.19 µM in experiment [1] (setting [6]) and 0.011 µM in experiment [2].

In the case of `COC(=O)[C@@H](NC(=O)C1(c2ccccc2)CCN(CCC2(c3ccc(Cl)c(Cl)c3)CCN(C(=O)c3ccccc3)C2)CC1)[C@@H](C)O` (stereo partly drawn) [Example 7, 2-[(1-(2-[1-benzoyl-3-(3,4-dichloro-phenyl)-pyrrolidin-3-yl]-ethyl)-4-phenyl-piperidine-4-carboxyl)-amino]-3-hydroxy butyric acid methyl ester], the IC50 in experiment [3] (setting [5]) was found to be 0.24 µM; in experiment [1] (setting [6]), 0.202 µM; in experiment [2], 0.01 µM.

In the case of `COc1cccc(OC)c1C(=O)N1CCC(CCN2CCC3(CC2)C(=O)NCN3c2ccccc2)(c2ccc(Cl)c(Cl)c2)C1` (stereo not drawn) [Example 9, 8-[2-[3-(3,4-dichloro-phenyl)-1-(2,6-dimethoxy-benzoyl)-pyrrolidin-3-yl]-ethyl]-1-phenyl-1,3,8-triaza-spiro[4.5]decane-4-one], the IC50 in experiment [3] (setting [5]) worked out at 0.049 µM; in experiment [1] (setting [6]), 0.183 µM; in experiment [2] it was 0.118 µM.

As for `COc1ccc(C(=O)N2CCC(CCN3CCC(C(N)=O)(c4ccccc4)CC3)(c3ccc(Cl)c(Cl)c3)C2)c(OC)c1` (stereo not drawn) [Example 2, 1-[2-[3-(3,4-dichloro-phenyl)-1-(2,4-dimethoxy-benzoyl)-pyrrolidin-3-yl]-ethyl]-4-phenyl-piperidine-4-carboxylic acid amide], the IC50 in experiment [3] (setting [5]) amounted to 0.131 µM; in experiment [1] it was 0.065 µM; in experiment [2], 0.034 µM.

In the case of `COc1ccccc1CC(=O)N1CCC(CCN2CCC(C(N)=O)(c3ccccc3)CC2)(c2ccc(Cl)c(Cl)c2)C1` (stereo not drawn) [Example 4, 1-(2-[3-(3,4-dichloro-phenyl)-1-[2-(2-methoxy-phenyl)-acetyl]-pyrrolidin-3-yl]-ethyl)-4-phenyl-piperidine-4-carboxylic acid amide], the figures for the IC50 in experiment [1] and in experiment [2] were 0.041 µM and 0.074 µM, respectively.

As for `NC(=O)C1(c2ccccc2)CCN(CCC2(c3ccc(Cl)c(Cl)c3)CC(=O)N(Cc3ccccc3)C2)CC1` (stereo not drawn) [Example 11, 1-[2-[1-benzyl-3-(3,4-dichloro-phenyl)-5-oxo-pyrrolidin-3-yl]-ethyl]-4-phenyl-piperidine-4-carboxylic acid amide], the IC50 in experiment [3] (setting [5]) was found to be 0.196 µM; in experiment [1] (setting [6]) it was 0.203 µM; in experiment [2], 0.127 µM.

As for `COc1cccc(OC)c1C(=O)N1CCC(CCN2CCC(C(N)=O)(c3ccccc3)CC2)(c2ccc(Cl)c(Cl)c2)C1` (stereo not drawn) [Example 5, 1-[2-[3-(3,4-dichloro-phenyl)-1-(2,6-dimethoxy-benzoyl)-pyrrolidin-3-yl]-ethyl]-4-phenyl-piperidine-4-carboxylic acid amide], the IC50 in experiment [3] was 0.02 µM. For the same compound, in experiment [4] (setting [7]), the “DYSPNEA INCIDENCE” value was 66.7% (6/9), the “DYSPNEA ONSET” value came out at 253 ± 47 s, the “MAXIMUM PRESSURE INCREASE (mmH2O)” value amounted to 0.7 ± 0.1 mmH2O and the “SRE NUMBER*” value was found to be 4.4 ± 1.2. In addition, in experiment [4] (setting [8]), the “DYSPNEA INCIDENCE” value is listed as 85.7% (6/7), the “DYSPNEA ONSET” value is 384 ± 85 s, the “MAXIMUM PRESSURE INCREASE (mmH2O)” value was 0.5 ± 0.1 mmH2O and the “SRE NUMBER*” value is 4.9 ± 1.9. The IC50 in experiment [1] was 0.065 µM. Moreover, the IC50 in experiment [2] was found to be 0.041 µM.
